Results published in patent US8952024B2, “Herbicidal pyrimidone derivatives” (E I du Pont de Nemours and Company, priority 2009, dated 2015).

What was measured:
Assay type in all cases: in vivo
[1] = system: giant foxtail (Setaria faberii); test: Test B pre-/postemergence plant response
Description: (§1) Seeds of plant species selected from blackgrass (Alopecurus myosuroides), downy bromegrass (Bromus tectorum), green foxtail (Setaria viridis), Italian ryegrass (Lolium multiflorum), wheat (Triticum aestivum), wild oat (Avena fatua), deadnettle (henbit deadnettle, Lamium amplexicaule), galium (catchweed bedstraw, Galium aparine), bermudagrass (Cynodon dactylon), Surinam grass (Brachiaria decumbens), cocklebur (Xanthium strumarium), corn (Zea mays), large crabgrass (Digitaria sanguinalis), woolly cupgrass (Eriochloa villosa), giant foxtail (Setaria faberii), goosegrass (Eleusine indica), johnsongrass (Sorghum halepense), kochia (Kochia scoparia), lambsquarters (Chenopodium album), morningglory (Ipomoea coccinea), nightshade (eastern black nightshade, Solanum ptycanthum), yellow nutsedge (Cyperus esculentus), pigweed (Amaranthus retroflexus), ragweed (common ragweed, Ambrosia elatior), Russian thistle (Salsola kali), soybean (Glycine max), sunflower (common oilseed sunflower, Helianthus annuus) and velvetleaf (Abutilon theophrasti) were planted into a blend of loam soil and sand and treated preemergence with test compounds formulated in a non-phytotoxic solvent mixture which included a surfactant.
(§2) At the same time, plants selected from these crop and weed species and also winter barley (Hordeum vulgare), canarygrass (Phalaris minor), chickweed (Stellaria media) and windgrass (Apera spica-venti) were planted in pots containing Redi-Earth® planting medium (Scotts Company, 14111 Scottslawn Road, Marysville, Ohio 43041) comprising spaghnum peat moss, vermiculite, wetting agent and starter nutrients and treated with postemergence applications of some of the test chemicals formulated in the same manner. Plants ranged in height from 2 to 18 cm (1- to 4-leaf stage) for postemergence treatments.
(§3) Treated plants and controls were maintained in a greenhouse for 13 to 15 days, after which time all treated plants were visually evaluated and compared to controls. Plant response ratings, summarized in Table B, are based on a scale of 0 to 100 where 0 is no effect and 100 is complete control. A dash (-) response means no test result.

[2] = system: cocklebur (Xanthium strumarium); test: Test B pre-/postemergence plant response
Description: as §1, §2, §3

[3] = system: green foxtail (Setaria viridis); test: Test B pre-/postemergence plant response
Description: as §1, §2, §3

[4] = system: corn (Zea mays); test: Test A pre-/postemergence plant response
Method in brief: (§4)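 Plants grown from seed in a loam soil and sand mix received test compounds both as a preemergence soil spray and, at the same time, as a postemergence spray at the one- to two-leaf stage. Injury was judged visually against untreated controls roughly ten days later, 0 meaning no effect and 100 complete control.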

[5] = system: giant foxtail (Setaria faberii); test: Test A pre-/postemergence plant response
Method in brief: as §4

[6] = system: wheat (Triticum aestivum); test: Test A pre-/postemergence plant response
Method in brief: as §4

[7] = system: large crabgrass (Digitaria sanguinalis); test: Test A pre-/postemergence plant response
Method in brief: as §4

[8] = system: velvetleaf (Abutilon theophrasti); test: Test A pre-/postemergence plant response
Method in brief: as §4

[9] = system: morningglory (Ipomoea spp.); test: Test A pre-/postemergence plant response
Method in brief: as §4

[10] = system: pigweed (Amaranthus retroflexus); test: Test A pre-/postemergence plant response
Method in brief: as §4

[11] = system: barnyardgrass (Echinochloa crus-galli); test: Test A pre-/postemergence plant response
Method in brief: as §4

[12] = 31 g ai/ha, postemergence, scale 0 to 100, 0 is no effect, 100 is complete control
[13] = 62 g ai/ha, postemergence, 0 is no effect, 100 is complete control, 13 to 15 days
[14] = Postemergence, 125 g ai/ha, scale 0 to 100 (0 no effect, 100 complete control)
[15] = Postemergence, 250 g ai/ha, scale 0 to 100 (0 no effect, 100 complete control)
[16] = Postemergence, 125 g ai/ha, 0 to 100 scale where 0 is no effect and 100 is complete control
[17] = Postemergence, 500 g ai/ha, 0 to 100 scale, 0 = no effect, 100 = complete control, approx. ten days
[18] = Preemergence, 125 g ai/ha, 0 to 100 scale, 0 = no effect, 100 = complete control
[19] = Preemergence, 500 g ai/ha, visual injury, 0 to 100 scale (0 no effect, 100 complete control), approx. ten days
[20] = 250 g ai/ha, Preemergence, 0 to 100 scale
[21] = Postemergence, 31 g ai/ha, scale 0 to 100 (0 no effect, 100 complete control)
[22] = Postemergence, 62 g ai/ha, scale 0 (no effect) to 100 (complete control), 13 to 15 days
[23] = Postemergence, 125 g ai/ha, visual rating after 13 to 15 days, scale 0 (no effect) to 100 (complete control)
[24] = Postemergence, 250 g ai/ha, scale 0 to 100
[25] = Preemergence, 31 g ai/ha, scale 0 to 100 (0 no effect, 100 complete control)
[26] = Preemergence, 125 g ai/ha, 0 to 100 scale
[27] = Postemergence, 125 g ai/ha, visual injury, 0 to 100 scale (0 no effect, 100 complete control), approx. ten days

**Q.** What does the source list for COCCn1c(-c2cccs2)ncc(C(=O)C2=C(O)CCCC2=O)c1=O [Compound 108]?
**A.** Plant response rating, Foxtail, Giant [1, 12]: 45; Foxtail, Giant plant response rating (0 to 100 scale) [1, 13]: 60; Plant response rating, Foxtail, Giant [1, 14]: 75; Plant response rating, Foxtail, Giant [1, 15]: 80; Plant response rating, Cocklebur [2, 12]: 75; Cocklebur plant response rating (0 to 100 scale) [2, 13]: 95; Plant response rating, Cocklebur [2, 14]: 100; Plant response rating, Cocklebur [2, 15]: 100; Plant response rating, Foxtail, Green [3, 12]: 5; Foxtail, Green plant response rating (0 to 100 scale) [3, 13]: 30; Plant response rating, Foxtail, Green [3, 14]: 80; Plant response rating, Foxtail, Green [3, 15]: 80; Plant response rating, Corn [4, 16]: 0; Plant response rating, Corn [4, 17]: 40; Plant response rating, Corn [4, 18]: 0; Plant response rating, Corn [4, 19]: 0; Plant response rating, Foxtail, Giant [5, 16]: 60; Plant response rating, Foxtail, Giant [5, 17]: 90; Plant response rating, Foxtail, Giant [5, 18]: 30; Plant response rating, Foxtail, Giant [5, 19]: 40; Plant response rating, Wheat [6, 16]: 0; Plant response rating, Wheat [6, 17]: 0; Plant response rating, Wheat [6, 18]: 0; Plant response rating, Wheat [6, 19]: 0; Plant response rating, Crabgrass, Large [7, 16]: 90; Plant response rating, Crabgrass, Large [7, 17]: 90; Plant response rating, Crabgrass, Large [7, 18]: 70; Plant response rating, Crabgrass, Large [7, 19]: 90; Plant response rating, Velvetleaf [8, 16]: 100; Plant response rating, Velvetleaf [8, 17]: 100; Plant response rating, Velvetleaf [8, 18]: 80; Plant response rating, Velvetleaf [8, 19]: 90; Plant response rating, Morningglory [9, 16]: 100; Plant response rating, Morningglory [9, 17]: 100; Plant response rating, Morningglory [9, 18]: 80; Plant response rating, Morningglory [9, 19]: 90; Plant response rating, Pigweed [10, 16]: 100; Plant response rating, Pigweed [10, 17]: 100; Plant response rating, Pigweed [10, 18]: 90; Plant response rating, Pigweed [10, 19]: 100; Plant response rating, Barnyardgrass [11, 16]: 90; Plant response rating, Barnyardgrass [11, 17]: 90; Plant response rating, Barnyardgrass [11, 18]: 30; Plant response rating, Barnyardgrass [11, 19]: 90

**Q.** What does the source list for Cc1ccc(-n2c(-c3cccc(Cl)c3)ncc(C(=O)C3=C(O)CCCC3=O)c2=O)cc1 [Compound 39]?
**A.** Plant response rating, Foxtail, Giant [1, 20]: 75; Plant response rating, Foxtail, Giant [1, 21]: 75; Plant response rating, Foxtail, Giant [1, 22]: 85; Plant response rating, Foxtail, Giant [1, 23]: 95; Foxtail, Giant plant response rating [1, 24]: 95; Plant response rating, Foxtail, Giant [1, 25]: 0; Plant response rating, Foxtail, Giant ([1]; Preemergence, 62 g ai/ha, scale 0 to 100, 0 no effect, 100 complete control): 45; Foxtail, Giant plant response rating [1, 26]: 70; Plant response rating, Cocklebur [2, 20]: 45; Plant response rating, Cocklebur [2, 21]: 75; Plant response rating, Cocklebur [2, 22]: 75; Plant response rating, Cocklebur [2, 23]: 95; Cocklebur plant response rating [2, 24]: 98; Plant response rating, Cocklebur [2, 25]: 0; Plant response rating, Foxtail, Green [3, 20]: 100; Plant response rating, Foxtail, Green [3, 21]: 80; Plant response rating, Foxtail, Green [3, 22]: 80; Plant response rating, Foxtail, Green [3, 23]: 90; Foxtail, Green plant response rating [3, 24]: 90; Foxtail, Green plant response rating [3, 26]: 75; Corn plant response rating [4, 27]: 0; Plant response rating, Corn [4, 17]: 40; Plant response rating, Corn [4, 18]: 0; Plant response rating, Corn [4, 19]: 0; Foxtail, Giant plant response rating [5, 27]: 80; Plant response rating, Foxtail, Giant [5, 17]: 90; Plant response rating, Foxtail, Giant [5, 18]: 50; Plant response rating, Foxtail, Giant [5, 19]: 90; Wheat plant response rating [6, 27]: 0; Plant response rating, Wheat [6, 17]: 0; Plant response rating, Wheat [6, 18]: 0; Plant response rating, Wheat [6, 19]: 0; Crabgrass, Large plant response rating [7, 27]: 80; Plant response rating, Crabgrass, Large [7, 17]: 90; Plant response rating, Crabgrass, Large [7, 18]: 60; Plant response rating, Crabgrass, Large [7, 19]: 90; Velvetleaf plant response rating [8, 27]: 100; Plant response rating, Velvetleaf [8, 17]: 100; Plant response rating, Velvetleaf [8, 18]: 70; Plant response rating, Velvetleaf [8, 19]: 90; Morningglory plant response rating [9, 27]: 80; Plant response rating, Morningglory [9, 17]: 90; Plant response rating, Morningglory [9, 18]: 40; Plant response rating, Morningglory [9, 19]: 60; Pigweed plant response rating [10, 27]: 100; Plant response rating, Pigweed [10, 17]: 100; Plant response rating, Pigweed [10, 18]: 60; Plant response rating, Pigweed [10, 19]: 90; Barnyardgrass plant response rating [11, 27]: 60; Plant response rating, Barnyardgrass [11, 17]: 90; Plant response rating, Barnyardgrass [11, 18]: 10; Plant response rating, Barnyardgrass [11, 19]: 90
